Measured values reported in ChEMBL document CHEMBL2074570, “The farnesyl protein transferase inhibitor SCH66336 is a potent inhibitor of MDR1 product P-glycoprotein” (Cancer Res, 2001).

Molecular target: ATP-dependent translocase ABCB1 (Homo sapiens, UniProt P08183)
Experiment: TP_TRANSPORTER: inhibition of DNR efflux (DNR: ? uM) in MDR1-expressing NIH3T3 cells
Type: functional, cell-based

ATP-dependent translocase ABCB1, sequence (P08183 whole entry): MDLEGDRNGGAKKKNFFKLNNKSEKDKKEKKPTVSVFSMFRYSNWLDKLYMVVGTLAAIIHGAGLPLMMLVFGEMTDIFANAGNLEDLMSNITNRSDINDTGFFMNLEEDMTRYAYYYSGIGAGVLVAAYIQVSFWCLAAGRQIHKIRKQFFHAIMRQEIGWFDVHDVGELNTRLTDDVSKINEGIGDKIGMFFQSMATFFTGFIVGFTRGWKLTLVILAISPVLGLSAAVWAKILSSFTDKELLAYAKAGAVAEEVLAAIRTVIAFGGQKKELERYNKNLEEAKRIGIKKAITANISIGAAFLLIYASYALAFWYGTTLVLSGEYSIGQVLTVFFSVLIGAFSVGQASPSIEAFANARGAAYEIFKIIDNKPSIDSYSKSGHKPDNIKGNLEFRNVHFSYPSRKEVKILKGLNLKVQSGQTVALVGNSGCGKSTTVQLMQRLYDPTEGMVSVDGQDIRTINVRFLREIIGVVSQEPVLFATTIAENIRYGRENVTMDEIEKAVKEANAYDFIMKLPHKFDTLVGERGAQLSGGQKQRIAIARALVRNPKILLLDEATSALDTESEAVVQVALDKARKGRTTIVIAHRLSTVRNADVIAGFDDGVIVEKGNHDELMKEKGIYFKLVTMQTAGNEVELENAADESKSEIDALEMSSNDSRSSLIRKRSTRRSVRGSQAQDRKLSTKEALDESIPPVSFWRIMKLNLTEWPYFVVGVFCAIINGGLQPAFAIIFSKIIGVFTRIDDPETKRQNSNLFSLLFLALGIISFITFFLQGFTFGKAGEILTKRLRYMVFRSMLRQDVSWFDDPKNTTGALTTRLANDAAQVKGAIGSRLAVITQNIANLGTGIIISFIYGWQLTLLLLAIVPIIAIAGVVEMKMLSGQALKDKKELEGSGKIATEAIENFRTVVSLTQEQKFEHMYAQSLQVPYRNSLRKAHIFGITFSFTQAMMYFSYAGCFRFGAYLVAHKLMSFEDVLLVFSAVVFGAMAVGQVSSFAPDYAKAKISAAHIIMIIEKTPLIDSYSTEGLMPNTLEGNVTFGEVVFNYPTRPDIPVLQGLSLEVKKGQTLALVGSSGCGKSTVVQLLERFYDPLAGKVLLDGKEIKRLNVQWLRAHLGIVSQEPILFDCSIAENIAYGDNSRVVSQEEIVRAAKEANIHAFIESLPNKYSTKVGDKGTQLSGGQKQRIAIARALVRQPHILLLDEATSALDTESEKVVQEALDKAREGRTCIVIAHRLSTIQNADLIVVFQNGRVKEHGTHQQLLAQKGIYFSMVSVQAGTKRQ

Compound: NC(=O)N1CCC(CC(=O)N2CCC([C@H]3c4ncc(Br)cc4CCc4cc(Cl)cc(Br)c43)CC2)CC1 [LONAFARNIB]
- IC50: 2700 nM
